Measured values published in patent US6245758A, “Methods of use for peroxynitrite decomposition catalysts, pharmaceutical compositions therefor” (priority 1996, dated 2001).
Where two headings read alike, the source gives them in different places.

Legend:
RAW and P815 cells = test: Comparison of increasing PN doses on RAW and P815 cells; type: cell-based, murine; conditions: data not shown
Description: (§1) Protocol for Cell Protection Assays using Peroxynitrite Decomposition Catalysts: A cell viability assay was established to rapidly assess the efficacy of peroxynitrite(PN) catalysts in protecting cells from PN25 mediated injury and death. The peroxynitrite challenge consisted of a pulse of synthetic PN added exogenously to cells. In order to better assess the efficacy of PN catalysts in protecting cells from PN-mediated damage, a quantity of peroxynitrite(in 50 mM NaOH) determined to cause maximal injury(100%) was added as an exogenous pulse to each well of cells in the presence or absence of catalyst. The NaOH vehicle was not toxic by itself.
Cells(RAW 264.7 cells or P815 mastocytoma cells; American Type Culture Collection, Rockville, Md.) were plated to confluence on 96-well tissue culture plates. Each well is washed twice with Dulbecco's phosphate buffered saline(DPBS; GIBCO BRL, Grand Island, N.Y.) to remove protein and other serum components which might react with the exogenous peroxynitrite. […] PN is next placed into separate wells at increasing concentrations and cell viability monitored. […]
Cell injury is measured as follows. […] The amount of fluorescent product in 100 μl of conditioned medium from each well of cells is then measured with an IDEXX fluorescent plate reader (gain setting of 1%) at an emission wavelength of 575 nm after exciting at 545 nm. […]

[1] = Beckman et al. 1990, cited from earlier work
[2] = Natural background decomposition of peroxynitrite; type: physicochemical; conditions: 22 ° C, 100 mM potassium phosphate pH=7.4
Description: Thus, in a typical experiment the natural background decomposition rate of sodium peroxynitrite was determined as follows. A 24 mM stock solution of sodium peroxynitrite in 50 mM NaOH is load into the small volume syringe and 100 mM potassium phosphate pH=7.4 is charged into the large volume syringe of the stopped-flow spectrophotometer. All stopped -flow measurements were made at 22 ° C. Injection of the solutions into the sample compartment results in ~25 fold dilution of the stock sodium peroxynitrite. […] To test for catalytic peroxynitrite decomposition activity, the metal complex was dissolved in 100 mM potassium phosphate buffer pH=7.4 and loaded into the large syringe and the decomposition of peroxynitrite was monitored as described above. The catalytic rate constant (kcat M-1 sec^-1) for the complexes tested was determined by varying the complex concentration and plotting kobs vs [complex] […] The kobs were obtained from averages of three stopped flow analysis at each catalyst concentration.

[3] = tested on: human dermal microvascular endothelial cells (HDME cells); test: Endothelial cell injury assay (51Cr release), authentic peroxynitrite; type: cell-based; conditions: 45 min, peroxynitrite 0-800 uM
Description: FIG. 5: Peroxynitrite-mediated human microvascular endothelial cell injury. Authentic peroxynitrite was overlaid directly onto to ^51 Cr-labeled HMDE cells grown in 96-well cell culture plates. After 45 min the amount of specific cell injury was determined and correlated to peroxynitrite concentration by least squares regression line. Values represent the average of three replicates +/-SEM.
FIG. 6: Peroxynitrite catalysts, Fe(TMPyP) (triangle) and Ni(II)dienoN4)PF6 (circle) were added to HDME cells in the cell injury assay immediately before the addition of authentic peroxynitrite. After 45 min, the amount of specific cell injury was assessed by the amount of radiolabel released into the medium. Values represent the average of three replicas +/-SEM. *p<0.01 vs. 0 uM control by Dunnett's t Test.
[…]: Human recombinant tumor necrosis factor-alpha (TNF-a) was obtained from Genzyme Corporation, Cambridge, MA. Human recombinant complement C5a and L-arginine (L-arg) was purchased from Sigma Chemical Company, St. Louis, Mo. Authentic peroxynitrite in 50 mM NaOH was prepared as described above. […]
Endothelial Cell Injury Assays: The cytotoxic effects of stimulated neutrophils or peroxynitrite on endothelial cells was determined using a ^51 Cr-release assay as described by Moldow (Moldow et. al. Methods Enzymol., 105, 378-385, [1984]). […]

CuZnSOD = test: Inactivation of CuZnSOD by peroxynitrite (stopped flow superoxide dismutase activity)
Description: Stock solutions of bovine liver CuZnSOD (DDI Pharmaceuticals Inc., Mountain View CA) were prepared by dissolving -1.0 mg of enzyme in 10 mL of 50 mM potassium phosphate buffer at a pH=7.4. […] All kobs were the average of triplicate runs using a stopped flow spectrophotometer manufactured by Kinetic Instruments Inc. (Ann Arbor, Mich.) and was interfaced to a MAC IICX personal computer.
Inactivation of CuZn SOD by peroxynitrite.
Inactivation of peroxynitrite was performed by aloquating 1.0 mL of stock CuZn SOD solution into 50 mM potassium phosphate buffer pH=7.4 such that a final assay volume of 10 mL is achieved after addition of peroxynitrite and EDTA solutions. To these assay solution was added various amounts of peroxynitrite (25 mM stock solution) such that the final concentration of peroxynitrite in the assay varied from 0, 25, 50, 75 and 100 uM. After the addition of peroxynitrite, 100 uL of a 2.5 mM stock EDTA solution was added to each assay solution such that the final concentration of EDTA was 250 uM. Each solution was then assayed by stopped flow analysis for superoxide dismutase activity.

RAW 264.7 cells = test: Cell protection assay, Alamar Blue viability after peroxynitrite challenge; type: cell-based, murine
Description: FIG. 8: Comparison of Ni and Fe Catalyst Protection of RAW Cells from PN(peroxynitrite)-mediated Injury. RAW 264.7 cells were plated at approximately 2×10^5 per well of a 96-well plate. […] Each condition represents the mean of 4 wells ±sem.
FIG. 9: Protection from PN-mediated RAW Cell Injury by Fe Catalysts. Cells were treated with 500 micromolar PN in the presence or the absence of the following catalysts: FeTMPyP, FeTMPS, FeTPPS. Cell viability was monitored as described in the text and figure legends 1, 2 and 3. Values represent the mean of 4 determinations ±sem.
as §1
Cells(RAW 264.7 cells or P815 mastocytoma cells; American Type Culture Collection, Rockville, Md.) were plated to confluence on 96-well tissue culture plates. Each well is washed twice with Dulbecco's phosphate buffered saline(DPBS; GIBCO BRL, Grand Island, N.Y.) to remove protein and other serum components which might react with the exogenous peroxynitrite. To each well is then added 200 μl of DPBS. PN is next placed into separate wells at increasing concentrations and cell viability monitored. The dose at which maximal cell death is attained is then utilized for the catalyst protection assessment.
Phosphate-buffered saline (200 uL) containing increasing concentrations of catalyst is next placed into individual wells of cells. The maximal dose of PN is subsequently administered to all wells of cells. After 15 minutes, the medium is removed from each well and the cells are either allowed to recover overnight in Earles minimum essential medium without phenol red and supplemented with 10% fetal bovine serum or alternatively the plate of cells is assayed that day for mitochondrial integrity using the Alamar Blue viability assay(Alamar Biosciences, Inc.; Sacramento, Calif.). In either case, cells are incubated at 37° C. in 5% CO2.
Cell injury is measured as follows. Briefly, 10% Alamar Blue(v/v) in Earles MEM with 10% FBS is added to each well of cells for 1-2h. Cell metabolism of the dye generates a fluorescent product which is directly related to the number of viable cells. Moreover, the production of the fluorescent metabolite is linear for over 2 h. The amount of fluorescent product in 100 μl of conditioned medium from each well of cells is then measured with an IDEXX fluorescent plate reader (gain setting of 1%) at an emission wavelength of 575 nm after exciting at 545 nm. Viability is either given as absolute fluorescent units or as a percent of the value obtained for untreated cells(100%).

[4] = tested on: carrageenan-induced paw edema; test: Carrageenan-induced paw edema; type: in vivo, rat; conditions: 30 mg/kg i.v.
Excerpt: Carrageenan-induced paw edema. The effects of peroxynitrite catalysts in vivo were initially tested on the carrageenan-induced paw edema. The choice of using this in vivo model of inflammation was based on the knowledge that 1) the inflammatory response is blocked by NOS inhibitors and 2) by superoxide dismutase (SOD). This indicates the participation of both NO and of O2-. Male Sprague Dawley rats were purchased from Harlan Sprague-Dawley (Indianapolis, Ind.). Male Sprague Dawley rats (175-200 g) received a subplantar injection in the right hind paw of carrageenan (0.1 ml of a 1% suspension in 0.85% saline). Paw volume was measured by a plethysmometer immediately before the injection of carrageenan and then at hourly intervals from 1 to 6 h. Edema was expressed as the increase in paw volume (in ml) measured after carrageenan injection compared to the pre-injection value for individual animals.

[5] = Stopped-flow kinetic analysis of catalytic decomposition of peroxynitrite by metal complexes; conditions: pH = 7.4, 22° C.
Description: To screen metal complexes for peroxynitrite decomposition catalytic activity of the present invention, peroxynitrite is prepared and isolated as its sodium salt by the reaction of acidic hydrogen peroxide with sodium nitrite followed by rapid quenching with NaOH as set out by Halfpenny and Robinson, in J. Chem. So., 1952, 928-938. Peroxynitrite has an absorbance maximum at 302 nm with an extinction coefficient of 1670 M^-1 cm^-1. Therefore, it is possible to directly observe the decomposition of peroxynitrite by stop-flow spectrophotometric analysis by monitoring the decomposition of the absorbance at 302 nm. That is, such observation of the decomposition of peroxynitrite at a rate accelerated over the natural decomposition rate with the addition of the metal complex identifies a compound of the present invention.
Kinetic measurements were made on an OLIS Rapid Scanning Stopped-Flow Spectrometer (On-Line Instrument Systems Inc., Bogart, Ga.)) using the OLISRSM-1000 Operating system for data acquisition and manipulation.
Thus, in a typical experiment the natural background decomposition rate of sodium peroxynitrite was determined as follows. A 24 mM stock solution of sodium peroxynitrite in 50 mM NaOH is load into the small volume syringe and 100 mM potassium phosphate pH=7.4 is charged into the large volume syringe of the stopped-flow spectrophotometer. All stopped -flow measurements were made at 22 ° C. Injection of the solutions into the sample compartment results in ~25 fold dilution of the stock sodium peroxynitrite. […] To test for catalytic peroxynitrite decomposition activity, the metal complex was dissolved in 100 mM potassium phosphate buffer pH=7.4 and loaded into the large syringe and the decomposition of peroxynitrite was monitored as described above. The catalytic rate constant (kcat M-1 sec^-1) for the complexes tested was determined by varying the complex concentration and plotting kobs vs [complex] Table 1. The kobs were obtained from averages of three stopped flow analysis at each catalyst concentration.

rat jejunum = test: Intestinal vascular permeability (radiolabelled albumin leakage) after endotoxin (LPS); type: in vivo; conditions: 30 mg/kg, i.v, 3 h after LPS; determined 1 h later
Description: FIG. 10 . Effects of FeTMPS, FeTMPyP or ZnTMPyP (30 mg/kg, i.v bolus) administered 3 h after challenge with E. coli lipopolysaccharide (LPS, 3 mg/kg, i.v bolus) on the increase in leakage of radio-labelled albumin (plasma extravasation, μl/g tissue) observed 1 h later (e.g 4 h after LPS challenge) in the rat jejunum. Results are shown as mean±s.e.m of 4-8 rats.
Intestinal vascular permeability was determined as the leakage into the jejunal tissue of [^125 I]-labelled bovine serum albumin ([^125 ]-BSA) administered intravenously (0.5 ml; 0.5 μCi) together with either LPS (3 mg/kg, serotype O111:B4) or isotonic saline. At 4 h after LPS administration, segments of jejunal tissue were ligated and removed. The intestinal tissues were rapidly washed, blotted dry and weighed. Blood (0.5 ml) was collected into tubes containing tri-sodium citrate (0.318% final concentration) and plasma prepared by centrifugation (10,000 g×10 min). The {^125 I]-BSA content in segments of whole tissue and in aliquots of plasma (100 μl) was determined in a gamma counter. The total content of plasma in the intestinal tissues was expressed as μl/g tissue. Changes in intravascular volume in the intestinal tissue was determined in an additional group of rats by administering ([^125 I]-BSA) intravenously 2 min before removal of the jejunum. The tissue and plasma content of radiolabel was determined and intravascular volume expressed as μl/g tissue. This value was substracted from that obtained in the plasma leakage studies to obtain a measure of the intestinal plasma albumin leakage. After LPS administration (4 h), there was a significant (P<0.01) increase in the plasma leakage (from 77±10 to 224±18 μl/g tissue, n=8).

O=NOO [peroxynitrite, sodium peroxynitrite]
differential susceptibility of RAW and P815 cells to peroxynitrite-mediated injury (RAW and P815 cells): no evidence for a differential susceptibility to peroxynitrite-mediated injury
t1/2 of decomposition of sodium peroxynitrite ([1]; 37° C, pH=7.4): 1.9 s
observed rate for the decomposition of peroxynitrite ([1]; pH 7.4, 37° C): 3.6×10^-1 sec-i
kobs of decomposition of sodium peroxynitrite [2]: 1.39×10^-1±0.15 sec^-1
t1/2 of decomposition of sodium peroxynitrite [2]: 5.2 see
endothelial cell injury by peroxynitrite [3]: dose dependent increase in cell injury
inactivation of CuZnSOD (CuZnSOD; peroxynitrite 0-100 uM): inactivates CuZnSOD enzyme in a concentration dependant manner
decrease in cell viability caused by PN (RAW 264.7 cells; RAW 264.7, PN dose of FIG. 8 experiment): 50%

O=C(O)CN(CCN(CC(=O)O)CC(=O)O)CC(=O)O [EDTA]
CuZnSOD activity in control reaction (CuZnSOD; 250 uM EDTA alone): no decrease in CuZnSOD activity

C[n+]1ccc(-c2c3nc(c(-c4cc[n+](C)cc4)c4ccc([nH]4)c(-c4cc[n+](C)cc4)c4nc(c(-c5cc[n+](C)cc5)c5ccc2[nH]5)C=C4)C=C3)cc1.[Zn+2] [ZnTMPyP, reference compound]
inhibition of edema formation [4]: failed to inhibit edema formation
kcat, catalytic rate constant for the decomposition of sodium peroxynitrite [5]: Inactive
radiolabelled albumin leakage (rat jejunum): did not inhibit radiolabelled albumin leakage
protection of cells from PN-mediated injury (RAW 264.7 cells; PN 500 micromolar, RAW cells, FIG. 9 (H2 TMPyP and ZnTMPyP: data not shown)): relatively ineffective
